Reference: patent US10168342B2, “Lipid probes and uses thereof” (THE SCRIPPS RESEARCH INSTITUTE, priority 2015, dated 2019)

Legend:
human NUCB1 [1] = target: T1, human NUCB1 (Homo sapiens, UniProt Q02818); experiment: In vitro gel-based competition of AEA-DA probe labeling of NUCB1; type: binding; conditions: AEA-DA 5.0 μM, lipids 20×, NUCB1-transfected HEK293T lysates
T1 construct: made in house; host or cells: Escherichia coli BL21(DE3)
T1 sequence (Q02818 27-461): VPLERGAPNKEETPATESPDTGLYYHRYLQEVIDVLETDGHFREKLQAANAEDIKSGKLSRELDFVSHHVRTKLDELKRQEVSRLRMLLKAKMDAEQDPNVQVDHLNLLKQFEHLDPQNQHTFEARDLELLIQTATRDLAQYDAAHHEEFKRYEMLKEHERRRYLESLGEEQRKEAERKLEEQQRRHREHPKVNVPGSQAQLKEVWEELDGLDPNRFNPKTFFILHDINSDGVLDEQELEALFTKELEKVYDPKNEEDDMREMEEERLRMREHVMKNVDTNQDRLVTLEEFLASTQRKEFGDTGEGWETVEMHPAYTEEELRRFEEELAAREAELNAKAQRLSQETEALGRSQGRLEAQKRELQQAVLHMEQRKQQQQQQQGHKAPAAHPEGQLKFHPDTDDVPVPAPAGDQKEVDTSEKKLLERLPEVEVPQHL
Experimental: Human NUCB1 lacking the N-terminal signal sequence (M1-A26) was subcloned into pET45b(+) vector (Novagen) using the following PCR primers for amplification: 5′-CATCAATTGTGTGCCCCTGGAGAGAG-3′ and 5′-AGCAAGCTTTACAGATGTTGGGGCACC-3′. Following transformation of Escherichia coli strain BL21(DE3) with hNucb1ΔSSpET45b(+), a single colony was isolated and grown in Terrific Broth containing carbenicillin (100 mg/L) at 37° C. to an OD600 of 0.8. Protein expression was induced with IPTG (1.0 mM) and the cells were incubated at 20° C. with shaking overnight. After centrifugation, cells pellets were resuspended in cold buffer containing HEPES (0.05M), NaCl (0.03 M), imidazole (5.0 mM), DNase (0.1 mg/mL), MgCl2 (1.0 mM), CaCl2 (1.0 mM) and EDTA-free Complete Protease Inhibitor Cocktail and lysed using a microfluidizer. […] The suspension was applied to a column and the retained resin was washed with HEPES buffer containing 500 mM NaCl until the eluent was clean of DNA and protein (A280/260) and then with HEPES buffer containing 10 mM imidazole (5 mL/1 mL resin). Protein was then slowly eluted with HEPES buffer containing 50 mM imidazole in 1.0 mL fractions and the combined fractions containing hNUCB1 were passed through a Sephadex G-25M column to remove imidazole and concentrated in an Amicon centrifugal filter device (Millipore). These conditions produced hNUCB1 at approximately 10 mg/L of culture; however, several lower molecular weight fragments were also present in this preparation. hNUCB1 was further purified by size exclusion chromatography.
(§1) Cell lysates (1.0 mg/mL), the indicated lipid probe (2.5 or 5 μM) and, for recombinant NUCB1 competition experiments, purified hNUCB1 (250 nM) and CaCl2 (100 μM) were mixed on ice. DMSO or competitors were then added to the proteome mixture (50 μM) in 96-well plates and each sample was incubated for 15 min at 37° C. The samples were then irradiated with UV light and subjected to previously described click chemistry conditions. As before, each reaction was quenched with 4×SDS loading buffer (17 μL), and proteins were resolved using SDS-PAGE (10% acrylamide gel) and analyzed by in-gel fluorescent scanning on a Hitachi FMBIO-II flatbed fluorescence scanner. NUCB1 competition was quantitatively assessed by measuring the fluorescent intensity of the corresponding gel band using ImageJ 1.48v and normalizing this value by a non-competed gel band to control for loading differences.
(§2) Metabolite data are shown as mean±SEM (n=3-5/group). Differences between two groups were determined using Student's t test (unpaired, two-tailed) and significance was denoted for P values<0.05.

human NUCB1 [2] = target: T1, human NUCB1; experiment: FluoPol assay / high throughput screen with Fl-AEA and recombinant NUCB1; type: binding; conditions: for suppression of the NUCB1-FluoPol signal (blockade of Fl-AEA binding): competitor lipids, recombinant NUCB1
Experimental: FluoPol conditions were optimized by screening various concentrations of Fl-AEA, hNUCB1, CaCl2 and Pluronic F-127 against positive and negative controls. Arachidonic acid (20 μM final) was used as a positive control, and DMSO as a negative. Additionally, protein-free controls were used to normalize for background signal. […] The Z′-factor for these conditions was determined to be 0.54, indicating a high signal to noise assay.
A 10 μL solution of hNUCB1 (1 μM), Fl-AEA (0.5 μM), CaCl2 (20 μM), and Pluronic F-127 (0.01%) was added to a Greiner 384-well plate. Additionally, in some wells protein was omitted to serve as a blank control for background signal. To the protein containing wells 16,000 compounds (50 nL in DMSO, 2 mM) from the Maybridge Hitfinder library were added by a pin-tool robot. Additionally, on each plate to some wells arachidonic acid (20 μM final) or DMSO were added as positive and negative controls to allow normalization between plates. The plates were allowed to incubate for 5 minutes at room temperature, then fluorescence polarization was measured by measuring fluorescence intensity through polarized 595 nm filters. Hits were selected based on maximal probe competition.

NENF = target: T2, NENF (Homo sapiens, UniProt Q9UMX5); experiment: In vitro gel-based competition of AEA-DA probe labeling of NENF; type: binding; conditions: NENF-transfected HEK293T lysates; for competition of AEA-DA probe labeling of recombinant NENF: competitors 1-100 μM
T2 construct: Full-length cDNAs encoding for the each protein of interest were subcloned into pcDNA3.1 myc-His A; Myc (myc-His of pcDNA3.1 myc-His A); expressed in transfected cells; host or cells: HEK293T (lysates)
T2 sequence (Q9UMX5 32-172, species assumed): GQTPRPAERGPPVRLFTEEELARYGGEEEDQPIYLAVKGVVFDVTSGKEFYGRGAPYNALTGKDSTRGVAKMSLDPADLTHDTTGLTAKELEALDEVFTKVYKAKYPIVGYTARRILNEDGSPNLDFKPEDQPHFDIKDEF
Experimental: (§3) Full-length cDNAs encoding for the each protein of interest were subcloned into pcDNA3.1 myc-His A (Invitrogen) or used directly for transfections if available in a eukaryotic expression vector. HEK293T cells were grown to ˜70% confluence under standard growth conditions before adding the appropriate cDNA [control cells (“mock”) received an equal amount of empty pcDNA3.1 myc-His A vector] and FuGENE 6 or X-tremeGENE HP (Roche) transfection reagent according to the manufacturer's instructions. Cells were incubated for 36-48 hours before labeling in situ or harvesting for in vitro experiments.
as §1, with “DMSO or competitors were then added to the proteome mixture (50 μM) in 96-well plates and each sample was incubated for 15 min at 37° C.” left out
as §2

[3] = system: NAEs, NATs, AA and 2-AG in Neuro2a cells; experiment: Targeted LC-MS (MRM) analysis of lipids from Neuro2a cells; type: cell-based, mouse; conditions: Neuro2a cells, 10 μM (PF-7845 1 μM)
Experimental: Discovery metabolite profiling was performed as described by Saghatelian et al., “Assignment of endogenous substrates to enzymes by global metabolite profiling,” Biochemistry 43:14332-14339 (2004) with several modifications. […] The media from the cells was removed and cells were washed with DPBS (2×5.0 mL) before adding freshly prepared media solutions containing vehicle or compound. After incubating for 6 h at 37° C. and subsequent removal of the media, the cells were harvested by scrapping in cold DPBS (3 mL) and pelleted by centrifugation in glass vials. The pellets were washed once with cold DPBS (3 mL) and then cold […] (2:1) (3 mL) was added. After vortexing, the vials were centrifuged (3,000×g, 10 min, 4° C.) and the bottom (organic) layer was transferred to a new glass vial and concentrated under a stream of N2. Samples were stored at −80° C. until the day of analysis when they were reconstituted in Mobile Phase A (100 μL, see below).
Neuro2a cells were treated and lipids extracted as described above. A mixture of internal standards [AEA-d4 (10 pmol), 2-AG-d5 (100 pmol), AA-d8 (100 pmol), PEA-d4 (100 pmol), PDA (1.0 nmol)] was added to the organic phase prior to extracting cells. NAEs, MAGs, AA and NATs were analyzed similarly to previously described methods (Saghatelian et al., 2004). The following MS parameters were used to measure the indicated metabolites by MRM (precursor ion, product ion, collision energy, polarity): NAE 20:4 (AEA) (348, 62, 12, positive), AEA-d4 (352, 66, 12, positive), NAE 16:0 (PEA) (300, 62, 12, positive), PEA-d4 (304, 62, 12, positive), NAE 18:0 (328, 62, 12, positive), NAE 18:1 (326, 62, 12, positive), NAE 18:2 (324, 62, 12, positive), 2-AG (379, 287, 8, positive), 2-AG-d5 (384, 287, 8, positive), AA (303, 259, 4, negative), AA-d8 (311, 267, 4, negative), NAT 20:4 (410, 80, 35, negative), NAT 22:1 (444, 80, 35, negative), NAT 24:1 (472, 80, 35, negative), NAT 24:0 (474, 80, 35, negative), NAT 26:0 (502, 80, 35, negative). The indicated lipids were quantified by measuring the area under the peak relative to an internal standard (AEA-d4 for AEA and NAE 18:2; PEA-d4 for PEA, NAE 18:1 and NAE 18:0; 2-AG-d5 for 2-AG; AA-d8 for AA and 20:4 NAT; PDA for all other NATs).

recombinant TMEM97 = target: T3, recombinant TMEM97 (Homo sapiens, UniProt Q5BJF2); experiment: In situ gel-based competition of arachidonoyl probe labeling of recombinant TMEM97 in HEK293T cells; type: cell-based; conditions: TMEM97-transfected HEK293T cells, probe 5 μM, competitor 25 μM
T3 construct: Full-length cDNAs encoding for the each protein of interest were subcloned into pcDNA3.1 myc-His A; expressed in transfected cells; host or cells: HEK293T
T3 sequence (Q5BJF2 whole entry, species assumed): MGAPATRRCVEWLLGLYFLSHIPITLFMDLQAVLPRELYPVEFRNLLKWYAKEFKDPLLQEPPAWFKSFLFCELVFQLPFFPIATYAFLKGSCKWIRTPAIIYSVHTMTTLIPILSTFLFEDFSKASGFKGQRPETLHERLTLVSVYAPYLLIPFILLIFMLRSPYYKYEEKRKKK
Experimental: Proteomes were diluted to 1.0 mg/mL (total protein concentration) and 50 μL of each proteome was transferred to separate wells in a 96-well plate.
as §3

[4] = system: AEA-DA lipid probe targets in Neuro2a cells; conditions: Neuro2a cells, AEA-DA 5 μM

In the case of `CCCCC/C=C\C/C=C\C/C=C\C/C=C\CCCC(=O)OC(CO)CO` [2-AG], the “competition of AEA-DA probe labeling of recombinant NUCB1 by lipids” value (human NUCB1 [1]) is reported as “blocked” and the “suppression of the NUCB1-FluoPol signal (blockade of Fl-AEA binding)” value (from here on “suppression of the NUCB1-FluoPol signal”) (human NUCB1 [2]) is reported as “Concentration-dependent suppression”.

In the case of `CCCCC/C=C\C/C=C\C/C=C\C/C=C\CCCC(=O)O` [AA, Arachidonic acid], the “competition of AEA-DA probe labeling of recombinant NUCB1 by lipids” value (human NUCB1 [1]) is reported as “blocked”, the “suppression of the NUCB1-FluoPol signal” value (human NUCB1 [2]) is reported as “Concentration-dependent suppression” and the “competition of AEA-DA probe labeling of recombinant NENF” value (NENF) is reported as “competitively blocked”.

For `CCCCC/C=C\C/C=C\C/C=C\C/C=C\CCCC(=O)NCCCCCNC(=O)c1ccc(-c2c3ccc(=[N+](C)C)cc-3oc3cc(N(C)C)ccc23)c(C(=O)[O-])c1` [Fl-AEA, 2-(6-(Dimethylamino)-3-(dimethylmninio)-3H-xanthen-9-yl)-5-((5-((5Z,8Z,11Z,14Z)-icosa-5,8,11,14-tetraenamido)pentyl)carbamoyl)benzoate], the “binding to recombinant, purified human NUCB1 (FluoPol signal)” value (human NUCB1 [2]; Fl-AEA 0.5 μM, NUCB1 1.0 μM) was “substantial increase in fluorescence polarization (FluoPol) signal”.

With `O=C(Nc1cccnn1)N1CCC(=Cc2cccc(Oc3ccc(C(F)(F)F)cn3)c2)CC1` [PF-7845, reference compound] the 2-AG levels [3] was “greater degree” and the “cellular concentrations of NAEs and NATs” value ([3]; 6 h) was “elevated”.

`CCCCC[C@H](O)/C=C/[C@H]1C(=O)C[C@H](O)[C@@H]1C/C=C\CCCC(=O)NCCO` [PGD2-EA] was tested, and the “suppression of the NUCB1-FluoPol signal” value (human NUCB1 [2]) was “minimal blockade”.

`CCCCC[C@H](O)/C=C/[C@@H]1[C@@H](C/C=C\CCCC(=O)NCCO)[C@@H](O)C[C@H]1O` [PGF2α-EA] was tested, and the “suppression of the NUCB1-FluoPol signal” value (human NUCB1 [2]) was “minimal blockade”.

In the case of `CC(C)CCC[C@@H](C)[C@H]1CC[C@H]2[C@@H]3CC=C4C[C@@H](O)CC[C@]4(C)[C@H]3CC[C@]12C` [cholesterol], the “suppression of the NUCB1-FluoPol signal” value (human NUCB1 [2]) is reported as “minimal blockade”.

In the case of `COc1cc2c(cc1OC)CN(CCc1ccc(NC(=O)c3cccc4c(=O)c5cccc(OC)c5[nH]c34)cc1)CC2` [elacridar, reference compound], the “competition of arachidonoyl probe labeling of recombinant TMEM97” value (recombinant TMEM97) is reported as “competition was observed” and the “concentration blocking lipid probe labeling of FECH, ABCB1B and TMEM97 (as low as)” value [4] is reported as 0.5 µM.

For `C=Cc1c(C)c2cc3[n-]c(cc4nc(cc5nc(cc1[n-]2)C(C)=C5CCC(=O)O)C(CCC(=O)O)=C4C)c(C)c3C=C.[Cl-].[Fe+3]` [hemin], the IC50 (NENF; read-out: IC50, inhibition of AEA-DA labeling of NENF) was 2000 nM and the “competition of AEA-DA probe labeling of recombinant NENF” value (NENF) was “inhibited in a concentration-dependent manner”.

With `CCCCC[C@H](O)/C=C/[C@H]1C=CC(=O)[C@@H]1CCCCCCC(=O)O` [prostaglandin A1] the “suppression of the NUCB1-FluoPol signal” value (human NUCB1 [2]) was “minimal blockade”.

`CCCCC[C@H](O)/C=C/C1=C(CCCCCCC(=O)O)C(=O)CC1` [prostaglandin B1] was tested, and the “suppression of the NUCB1-FluoPol signal” value (human NUCB1 [2]) was “minimal blockade”.

In the case of `CCCCC[C@H](O)/C=C/[C@H]1C(=O)C[C@H](O)[C@@H]1C/C=C\CCCC(=O)O` [prostaglandin D2], the “suppression of the NUCB1-FluoPol signal” value (human NUCB1 [2]) is reported as “minimal blockade”.

In the case of `CCCCCCCCCCCCC/C=C/[C@@H](O)[C@@H](N)CO` [sphingosine], the “suppression of the NUCB1-FluoPol signal” value (human NUCB1 [2]) is reported as “minimal blockade”.
